US6495699B2, “Metalloproteinase inhibitors, pharmaceutical compositions containing them, and their use” (Agouron Pharmaceuticals Inc., priority 1996, dated 2002)
Counter-ions that a name gives are not always drawn.

What was measured:
[1] = molecular target: T1, catalytic domain of human stromelysin (Hsln) (Homo sapiens, UniProt P08254); experiment: Fluorometric MCA-peptide hydrolysis assay, stromelysin (Hsln); format: biochemical; conditions: apparent Ki; 10 μM MCA peptide substrate, 37° C., pH 7.5; read-out: Hsln (Ki,app)
T1 construct: The catalytic domain of human stromelysin (Hsln) was obtained by expression and purification of a C-terminally truncated prostromelysin-1; made in house; host or cells: E. coli BL21
T1 sequence (P08254 100-272 limits assumed): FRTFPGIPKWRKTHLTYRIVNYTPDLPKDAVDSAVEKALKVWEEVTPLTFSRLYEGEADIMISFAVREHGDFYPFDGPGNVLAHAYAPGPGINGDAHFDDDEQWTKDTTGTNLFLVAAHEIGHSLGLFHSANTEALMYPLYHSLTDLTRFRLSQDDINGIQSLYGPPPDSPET
Method: The catalytic domain of human stromelysin (Hsln) was obtained by expression and purification of a C-terminally truncated prostromelysin-1 from E. coli host BL21 (see Marcy et al. Biochem., 1991, 30, 6476). The subsequent activation of the mature form (Hsln) was completed with 2 mM APMA for 1 hour at 37° C., followed by separation using a sizing column.
(§1) Assays were performed in assay buffer (50 mM Tricine pH 7.5, 200 mM sodium chloride, 10 mM calcium chloride, 0.5 mM zinc acetate containing 2% dimethyl sulfoxide (DMSO)) once the substrate and inhibitor were diluted into it. Stock solutions of inhibitors were prepared in 100% DMSO. Stock solutions of the substrate were prepared in 100% DMSO at a concentration of 6 mM.
(§2) The assay method was based on the hydrolysis of MCA-Pro-Leu-Gly-Leu-DPA-Ala-Arg-NH2 (American Peptide Co.) at 37° C. (see Knight, C. G. et al., FEBS, 1992, 296, 263-266). The fluorescence changes were monitored with a Perkin-Elmer LS-50B fluorimeter using an excitation wavelength of 328 nm and an emission wavelength of 393 nm. The substrate concentration used in the assays was 10 μM. The inhibitor was diluted into the assays from a solution in 100% DMSO, and controls substituted an equal volume of DMSO so that the final DMSO concentration from inhibitor and substrate dilution in all assays was 2%. […] Proper determination of steady-state rates of substrate cleavage required assay lengths of 60 minutes to allow for complete equilibration of the enzyme-inhibitor complex.
(§3) The Km for the MCA peptide substrate with the matrix metalloproteinases is quite high and exceeds its solubility under assay conditions. Consequently, the apparent Ki (Ki,app) was determined to describe the strength of inhibition. However, in this case, Ki,app would be essentially equal to Ki since [S]<<Km. For the determination of Ki,app, the concentration of the inhibitor was varied at a constant and low concentration of substrate and the steady-state rates of fluorescence change determined. In most cases absorptive quench due to the presence of ligand was not observed. For slow-binding inhibitors, onset of inhibition curves were collected for at least 45 minutes so that equilibrium was established. Steady-state rates of fluorescence change were obtained by fitting a curve to an equation for a single exponential decay containing a linear phase. The fitted value of the linear phase was taken as the steady-state rate. The steady-state rates were fitted to the Michaelis equation describing competitive inhibition by non-linear methods. Data resulting from tight-binding inhibition was analyzed, and Ki,app determined by fitting the data to the tight-binding equation of Morrison (Biochem. Biophys. Acta, vol. 185, pp. 269-286 (1969)) by non-linear methods.

[2] = molecular target: T2, Human matrilysin (Matr) (Homo sapiens, UniProt P09237); experiment: Fluorometric MCA-peptide hydrolysis assay, matrilysin (Matr); format: biochemical; conditions: apparent Ki; 10 μM MCA peptide substrate, 37° C., pH 7.5; read-out: Matr (Ki,app)
T2 construct: the catalytic domain was liberated by treatment with 2 mM APMA at 37° C. for 2 hours; ubiquitin (cleaved yes); made in house; host or cells: E. coli
T2 sequence (P09237 95-267): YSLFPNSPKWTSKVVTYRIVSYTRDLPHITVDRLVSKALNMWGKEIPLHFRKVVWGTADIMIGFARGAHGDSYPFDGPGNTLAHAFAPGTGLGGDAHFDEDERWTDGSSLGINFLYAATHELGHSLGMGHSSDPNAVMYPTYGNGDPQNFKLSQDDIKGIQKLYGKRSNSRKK
Method: Human matrilysin (Matr) was expressed in E. coli as a fusion protein with ubiquitin. After purification of the matrilysin/ubiquitin fusion from inclusion bodies, the catalytic domain was liberated by treatment with 2 mM APMA at 37° C. for 2 hours. Final purification was complete using copper chelate chromatography.
as §1, §2, §3

[3] = molecular target: T3, human progelatinase A (GelA), catalytic and fibronectin-like portion (Homo sapiens, UniProt P08253); experiment: Fluorometric MCA-peptide hydrolysis assay, gelatinase A (GelA); format: biochemical; conditions: apparent Ki; 10 μM MCA peptide substrate, 37° C., pH 7.5
T3 construct: The catalytic and fibronectin-like portion of human progelatinase A (GelA) was expressed as a fusion protein with ubiquitin; ubiquitin; made in house; host or cells: E. coli
T3 sequence (P08253 110-465 limits assumed): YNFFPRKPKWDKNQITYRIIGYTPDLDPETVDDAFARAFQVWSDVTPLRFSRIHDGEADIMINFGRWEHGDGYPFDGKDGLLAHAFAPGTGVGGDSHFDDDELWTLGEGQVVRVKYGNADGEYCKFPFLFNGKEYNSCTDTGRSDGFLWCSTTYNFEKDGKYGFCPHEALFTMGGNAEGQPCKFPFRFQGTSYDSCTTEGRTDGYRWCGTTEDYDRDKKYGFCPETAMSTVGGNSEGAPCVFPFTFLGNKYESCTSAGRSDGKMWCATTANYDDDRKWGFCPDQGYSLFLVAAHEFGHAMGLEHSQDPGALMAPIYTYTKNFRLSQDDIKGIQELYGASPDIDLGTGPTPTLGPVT
Method: The catalytic and fibronectin-like portion of human progelatinase A (GelA) was expressed as a fusion protein with ubiquitin in E. Coli. Assays were carried out on autocatalytically activated material.
as §1, §2, §3

[4] = molecular target: T4, human collagenase-3 (Coll3) (Homo sapiens, UniProt P45452); experiment: Fluorometric MCA-peptide hydrolysis assay, collagenase-3 (Coll3); format: biochemical; conditions: apparent Ki; 10 μM MCA peptide substrate, 37° C., pH 7.5; read-out: Coll3 (Ki,app)
T4 construct: the catalytic domain was liberated by treatment with 2 mM APMA at room temperature overnight; ubiquitin (N, cleaved yes); made in house; host or cells: E. coli
Method: The propeptide and catalytic domain of human collagenase-3 (Coll3) was expressed in E. coli as an N-terminal fusion protein with ubiquitin. After purification of the fusion from inclusion bodies, the catalytic domain was liberated by treatment with 2 mM APMA at room temperature overnight. Final purification was completed using copper chelate chromatography.
as §1, §2
as §3, with “In most cases absorptive quench due to the presence of ligand was not observed.” left out

SMILES: CC(C)(C)[C@H](NC(=O)[C@@H](CC(=O)O)n1ccc(-c2ccc(-c3ccc(C#N)cc3)cc2)c1)C(=O)Nc1ccncc1 (as salt: salt) [Example 5(d), 3(R)-[3-(4′-Cyanobiphenyl-4-yl)-1H-pyrrol-1-yl]-N-[2,2-dimethyl-1(S)-(pyridin-4-ylcarbamoyl)propyl]succinamic Acid Formate Salt]
- melting point: 134 to 136 °C

SMILES: CC(C)(C)[C@@H](CO)NC(=O)C(CC(=O)O)n1cnc(-c2ccc(-c3ccccc3)cc2)c1 (mixture of isomers) [Example 18(b), 3(RS)-(3-Biphenyl-4-yl-1H-imidazol-1-yl)-N-(2,2-dimethyl-1(S)-hydroxymethylpropyl)succinamic Acid]
- Ki [1]: 3000 nM
- Ki [2]: > 100000 nM
- melting point: 145 to 150 °C

SMILES: CC(C)(O)C(CO)NC(=O)[C@@H](CC(=O)O)n1ccc(-c2ccc(-c3ccccc3)cc2)c1 (stereo in doubt) [Example 1(i), 3(R)-[3-(Biphenyl-4-yl)-1H-pyrrol-1-yl]-N-[2-hydroxy-1(S)-(hydroxymethyl)-2-methylpropyl]succinamic Acid]
- Ki [1]: 113 nM
- GelA (Ki,app) [3]: 8 nM
- Ki [4]: 89.6 nM
- melting point: 150 to 152 °C

SMILES: CC(C)(C)[C@H](NC(=O)C(CC(=O)O)c1ccsc1)C(=O)Nc1ccncc1 (stereo in doubt) [Example 17(c), N-[2,2-Dimethyl-1(S)-(pyridin-4-ylcarbamoyl)-propyl]-3(R)-thien-3-yl-succinamic Acid]
- Ki [1]: 935 nM
- Ki [2]: 156 nM
- GelA (Ki,app) [3]: 157 nM
- melting point: 205 °C (dec.)

SMILES: COC[C@H](Cc1ccccc1)NC(=O)[C@@H](CC(=O)O)n1ccc(-c2ccc(-c3ccccc3)cc2)c1 [Example 1(f), N-(1(S)-Benzyl-2-methoxyethyl)-3(R)-[3-(biphenyl-4-yl)-1H-pyrrol-1-yl]succinamic Acid]
- Ki [1]: 331 nM
- Ki [2]: 1000 nM
- GelA (Ki,app) [3]: 93 nM
- Ki [4]: 542 nM
- melting point: 247 °C

SMILES: CCCc1ccc(-c2ccn([C@H](CC(=O)O)C(=O)N[C@H](C(=O)NC)C(C)(C)C)c2)cc1 [Example 1(j), N-[2,2-Dimethyl-1(S)-(methylcarbamoyl)propyl]-3(R)-[3-(4-propylphenyl)-1H-pyrrol-1-yl]succinamic Acid]
- Ki [1]: 133 nM
- GelA (Ki,app) [3]: 1.43 nM
- Ki [4]: 9.43 nM
- melting point: 104 to 106 °C

SMILES: COC(=O)c1ccc(NC(=O)[C@H](CC(C)C)NC(=O)[C@@H](CC(=O)O)n2ccc(-c3ccc(-c4ccccc4)cc3)c2)cc1 [Example 1(k), 4-[2S-[2(R)-[3-(Biphenyl-4-yl)-1H-pyrrol-1-yl]-3-carboxy-propionylamino]-4-methyl-pentanoylamino]benzoic Acid Methyl Ester]
- Ki [1]: 0.15 nM
- Ki [2]: 11 nM
- GelA (Ki,app) [3]: 1.9 nM
- Ki [4]: 40 nM
- melting point: 209 to 211 °C

SMILES: N#Cc1ccc(-c2ccc(-c3ccn([C@H](CC(=O)O)C(=O)N[C@H](CO)Cc4ccccc4)c3)cc2)cc1 [Example 4(a), N-(1(S)-Benzyl-2-hydroxyethyl)-3(R)-[3-(4′-cyanobiphenyl-4-yl)-1H-pyrrol-1-yl]succinamic Acid]
- Ki [1]: 30 nM
- Ki [2]: 5200 nM
- GelA (Ki,app) [3]: 1.3 nM
- Ki [4]: 2.7 nM
- melting point: 189 to 192 °C

SMILES: NC(=O)c1ccc(-c2ccc(-c3ccn([C@H](CC(=O)O)C(=O)N[C@H](CO)Cc4ccccc4)c3)cc2)cc1 [Example 4(b), N-(1-Benzyl-2-hydroxyethyl)-3(R)-[3-(4′-carbamoylbiphenyl-4-yl)-1H-pyrrol-1-yl]succinamic Acid]
- Ki [1]: 23 nM
- Ki [2]: 1520 nM
- GelA (Ki,app) [3]: 1.11 nM
- Ki [4]: 2.13 nM
- melting point: 218 to 220 °C

SMILES: CC(C)(C)[C@@H](CO)NC(=O)[C@@H](CC(=O)O)n1ccc(-c2ccc(-c3ccc(C(N)=O)cc3)cc2)c1 [Example 4(c), 3(R)-[3-(4′-Carbamoylbiphenyl-4-yl)-1H-pyrrol-1-yl]-N-(1(S)-hydroxymethyl-2,2-dimethyl-propyl)succinamic Acid]
- Ki [1]: 64 nM
- Ki [2]: 2530 nM
- GelA (Ki,app) [3]: 7.2 nM
- melting point: 192 to 194 °C

SMILES: CC(C)C[C@H](NC(=O)[C@@H](CC(=O)O)n1ccc(-c2ccc(-c3ccncc3)cc2)c1)c1ncc[nH]1.O=CO [Example 7(c), N-[1(S)-(1H-Imidazol-2-yl)-3-methylbutyl]-3(R)-[3-[4-(pyridin-4-yl)phenyl]-1H-pyrrol-1-yl]succinamic Acid Formate Salt]
- Ki [1]: 26 nM
- Ki [2]: 5330 nM
- GelA (Ki,app) [3]: 0.055 nM
- Ki [4]: 1.3 nM

SMILES: O=C(C[C@H](C(=O)N[C@H]1Cc2cn(c3ccccc23)CCCCCCNC1=O)n1cccc1)NO [Example 8(c), N ^4Hydroxy-N^1-(9-oxo-1,8-diaza-tricyclo[10.6.1.0^13,18]nonadeca-12(19),13,15,17-tetraen-10S-yl)-3(R)-1H-(pyrrol-1-yl)succinamide]
- melting point: 158 to 165 °C

SMILES: CCC[C@H](C(=O)O)[C@H](C(=O)N[C@H](CO)Cc1ccccc1)n1ccc(-c2ccc(-c3ccccc3)cc2)c1 [Example 10(a), 2S-[1R-(1(S)-Benzyl-2-hydroxyethylcarbamoyl)-(3-biphenyl-4-yl-1H-pyrrol-1-yl)-methyl]-pentanoic Acid]
- Ki [2]: 617 nM
- GelA (Ki,app) [3]: 3.3 nM
- Ki [4]: 50 nM
- melting point: 179 to 181 °C (dec.)

SMILES: CC(C)C[C@H](NC(=O)[C@@H](CC(=O)O)c1ccn(-c2ccc(-c3ccc(C#N)cc3)cc2)c1)c1ncc[nH]1 [Example 14(c), 3(S)-[1-(4′-Cyanobiphenyl-4-yl)-1H-pyrrol-3-yl]-N-[1(S)-(1H-imidazol-2-yl)-3-methylbutyl]succinamic Acid]
- Ki [1]: 17.7 nM
- GelA (Ki,app) [3]: 0.044 nM
- melting point: 206 to 210 °C (dec.)

SMILES: O=C(O)C[C@H](C(=O)N[C@H](CO)Cc1ccccc1)n1cc(-c2ccc(-c3ccccc3)cc2)cn1 [Example 16, N-(1(S)-Benzyl-2-hydroxyethyl)-3(R)-[4-(biphenyl-4-yl)-pyrazol-1-yl]succinamic Acid]
- Ki [1]: 1500 nM
- Ki [2]: 63000 nM
- GelA (Ki,app) [3]: 81 nM
- melting point: 154 to 159 °C
